What all share (assay type): ADME, cell-based
Data set [1] in a line: Apparent permeability from apical to basolateral side of human Caco-2 cells at 30 uM after 90 mins. A general note: Caco-2 monolayers are a common model of the intestinal barrier.
Data set [2] can be described thus: Apparent permeability from apical to basolateral side of human Caco-2 cells at 50 uM after 90 mins.
A short description of data set [3]: Apparent permeability from apical to basolateral side of human Caco-2 cells at 100 uM after 90 mins.
A short description of data set [4]: Apparent permeability from basolateral to apical side of human Caco-2 cells at 30 uM after 90 mins.
A short description of data set [5]: Apparent permeability from basolateral to apical side of human Caco-2 cells at 50 uM after 90 mins.
The nature of data set [6]: Apparent permeability from basolateral to apical side of human Caco-2 cells at 100 uM after 90 mins.
Data set [7] has as its system Caco-2. Nature of the data set: Ratio of permeability from basolateral to apical side over apical to basolateral side of human Caco-2 cells at 30 uM. As to conditions: caco-2, 30 µM.
In data set [8] the test system is Caco-2. Put plainly: Ratio of permeability from basolateral to apical side over apical to basolateral side of human Caco-2 cells at 50 uM. The conditions noted are these: caco-2, 50 µM.
The subject of data set [9] is Caco-2. Nature of the data set: Ratio of permeability from basolateral to apical side over apical to basolateral side of human Caco-2 cells at 100 uM. As to conditions: caco-2, 100 µM.
In data set [10] the test system is Caco-2. Put plainly: Drug level in Caco-2 cells assessed as intracellular accumulation at 50 uM after 180 mins. As to conditions: human, caco-2, 3 h.
The test system of data set [11] is Caco-2. Put plainly: Drug level in Caco-2 cells assessed as intracellular accumulation at 50 uM after 60 mins. As to conditions: human, caco-2, 1 h.
Data set [12] has as its system Caco-2. Put plainly: Drug level in Caco-2 cells assessed as intracellular accumulation at 50 uM after 90 mins. As to conditions: human, caco-2, 1.5 h.
Data set [13] has as its system Caco-2. Put plainly: Drug level in Caco-2 cells assessed as intracellular accumulation at 50 uM after 120 mins. The conditions noted are these: human, caco-2, 2 h.
Data set [14] has as its system Caco-2. Put plainly: Drug level in Caco-2 cells assessed as intracellular accumulation at 50 uM after 150 mins. The conditions noted are these: human, caco-2, 2.5 h.
Data set [15] in a line: Drug level in Caco-2 cells assessed as total recovery rate at 50 uM after 30 mins. As to conditions: human, read-out: Drug uptake.
Data set [16] in a line: Drug level in Caco-2 cells assessed as total recovery rate at 50 uM after 60 mins. The conditions noted are these: human, read-out: Drug uptake.
Data set [17] is described as follows: Drug level in Caco-2 cells assessed as total recovery rate at 50 uM after 90 mins. As to conditions: human, read-out: Drug uptake.
Data set [18] is described as follows: Drug level in Caco-2 cells assessed as total recovery rate at 50 uM after 120 mins. As to conditions: human, read-out: Drug uptake.
The nature of data set [19]: Drug level in Caco-2 cells assessed as total recovery rate at 50 uM after 150 mins. As to conditions: human, read-out: Drug uptake.
Data set [20] in a line: Drug level in Caco-2 cells assessed as total recovery rate at 50 uM after 180 mins. The conditions noted are these: human, read-out: Drug uptake.
Data set [21] deals with Caco-2. Put plainly: Drug level in Caco-2 cells assessed as intracellular accumulation at 50 uM after 30 mins. The conditions noted are these: human, caco-2, 0.5 h.
A short description of data set [22]: Apparent permeability from apical to basolateral side of human Caco-2 cells at 50 uM in presence of iodoacetamide. As to conditions: Caco-2, with iodoacetamide (concentration not stated).
Data set [23] is described as follows: Apparent permeability from basolateral to apical side of human Caco-2 cells at 50 uM in presence of iodoacetamide. The conditions noted are these: Caco-2, with iodoacetamide (concentration not stated).

For orientation: Papp A→B means the apparent permeability from the apical to the basolateral side of a cell layer. Broadly, the Papp B→A is the apparent permeability from the basolateral to the apical side of a cell layer. As for `CC(C)C[C@@H](c1c(O)c(C=O)c(O)c(C=O)c1O)[C@@]1(C)CC[C@@H]2[C@@H]1[C@H]1[C@@H](CC[C@@]2(C)O)C1(C)C` [MACROCARPAL A], the Papp A→B at 1.5 h, 30 µM in data set [1] was found to be 1.66 ×10⁻⁶ cm/s. Further, the apparent permeability from apical to basolateral (Papp A→B) at 1.5 h, 50 µM in [2] is 1.64 ×10⁻⁶ cm/s. Also, the Papp A→B at 1.5 h, 100 µM in data set [3] is 1.8 ×10⁻⁶ cm/s. For the same compound, the apparent permeability from basolateral to apical (Papp B→A) at 1.5 h, 30 µM in data set [4] amounted to 1.63 ×10⁻⁶ cm/s. Besides, the Papp B→A at 1.5 h, 50 µM in [5] was 1.68 ×10⁻⁶ cm/s. The Papp B→A at 1.5 h, 100 µM in [6] is 1.42 ×10⁻⁶ cm/s. Also, the values for the Ratio with Caco-2 [7], in the data set on Caco-2 [8] and in the data set on Caco-2 [9] were 1.02, 0.98 and 1.27, respectively. Moreover, the Drug uptake in the data set on Caco-2 [10] turned out to be 56.67%; in the data set on Caco-2 [11], 40.79%; in the data set with Caco-2 [12], 44.21%; in the data set on Caco-2 [13], 50.42%; in the data set with Caco-2 [14] it was 50.57%; in the data set with Caco-2 [21], 36.8%. Also, the recovery at 0.5 h, 50 µM in [15] stood at 76.4%. Besides, in data set [16], the recovery at 1 h, 50 µM stood at 63.1%. Besides, in [17], the recovery at 1.5 h, 50 µM amounted to 60.8%. The recovery at 2 h, 50 µM in [18] was 69.8%. In addition, the recovery at 2.5 h, 50 µM in data set [19] came to 68.5%. Besides, in data set [20], the recovery at 3 h, 50 µM stood at 75.7%.

As to `CC(C)C[C@H](c1c(O)c(C=O)c(O)c(C=O)c1O)[C@@]1(C)CC[C@@H]2[C@@H]1[C@H]1[C@@H](CC[C@@]2(C)O)C1(C)C` [MACROCARPAL B], in [1], the apparent permeability from apical to basolateral (Papp A→B) at 1.5 h, 30 µM turned out to be 2.29 ×10⁻⁶ cm/s. The apical-to-basolateral permeability (Papp A→B) at 1.5 h, 50 µM in [2] amounted to 1.71 ×10⁻⁶ cm/s. Besides, the Papp A→B at 1.5 h, 100 µM in data set [3] came out at 1.64 ×10⁻⁶ cm/s. Also, the Papp B→A at 1.5 h, 30 µM in data set [4] turned out to be 1.84 ×10⁻⁶ cm/s. In data set [5], the Papp B→A at 1.5 h, 50 µM worked out at 2 ×10⁻⁶ cm/s. The Papp B→A at 1.5 h, 100 µM in [6] came out at 2.14 ×10⁻⁶ cm/s. Also, the Ratio in the data set with Caco-2 [7] is listed as 1.25; with Caco-2 [8], 0.85; in the data set on Caco-2 [9], 0.77. Also, the Drug uptake in the data set on Caco-2 [10] worked out at 49.26%; in the data set on Caco-2 [11], 50.56%; in the data set with Caco-2 [12], 46.98%; in the data set with Caco-2 [13] it was 63.25%; in the data set on Caco-2 [14], 53.21%; in the data set on Caco-2 [21] it was 41.19%. In addition, the recovery at 0.5 h, 50 µM in data set [15] stood at 50%. The recovery at 1 h, 50 µM in data set [16] came to 56.6%. The recovery at 1.5 h, 50 µM in data set [17] was found to be 64.7%. In addition, the recovery at 2 h, 50 µM in data set [18] was 68.7%. Moreover, the recovery at 2.5 h, 50 µM in data set [19] came to 59.5%. In data set [20], the recovery at 3 h, 50 µM came out at 55.5%.

In the case of `Cc1cc(=O)c2c(O)cc(O[C@@H]3O[C@H](COC(=O)C4=CC[C@H](C(C)(C)O)CC4)[C@@H](O)[C@H](O)[C@H]3O)cc2o1` [CYPELLOCARPA C], in [1], the Papp A→B at 1.5 h, 30 µM was 7.4 ×10⁻⁶ cm/s. Moreover, the Papp A→B at 1.5 h, 50 µM in data set [2] is 5.99 ×10⁻⁶ cm/s. The apical-to-basolateral permeability (Papp A→B) at 1.5 h, 100 µM in data set [3] was determined as 4.82 ×10⁻⁶ cm/s. Also, the Papp B→A at 1.5 h, 30 µM in data set [4] is 2.66 ×10⁻⁶ cm/s. The Papp B→A at 1.5 h, 50 µM in [5] was 3.32 ×10⁻⁶ cm/s. The apparent permeability from basolateral to apical (Papp B→A) at 1.5 h, 100 µM in data set [6] is 2.71 ×10⁻⁶ cm/s. The Ratio was found to be 2.74 in the data set on Caco-2 [7], 1.8 in the data set on Caco-2 [8] and 1.81 in the data set with Caco-2 [9]. Besides, the Papp A→B at 50 µM in [22] was found to be 0.897 ×10⁻⁶ cm/s. In addition, in data set [23], the Papp B→A at 50 µM worked out at 2.46 ×10⁻⁶ cm/s. Also, the Drug uptake was found to be 0.89% in the data set on Caco-2 [10]; 0.83% in the data set on Caco-2 [11]; 0.81% with Caco-2 [12]; 0.69% with Caco-2 [13]; 0.81% in the data set on Caco-2 [14]; 1.42% in the data set on Caco-2 [21]. Besides, the recovery at 0.5 h, 50 µM in [15] was determined as 56.8%. Besides, the recovery at 1 h, 50 µM in data set [16] turned out to be 53.1%. The recovery at 1.5 h, 50 µM in data set [17] worked out at 52.8%. Moreover, the recovery at 2 h, 50 µM in [18] was found to be 52.7%. Moreover, the recovery at 2.5 h, 50 µM in [19] was determined as 54.6%. Also, in data set [20], the recovery at 3 h, 50 µM was determined as 52.5%.

Source of the values: ChEMBL document CHEMBL1138427, “Intestinal permeability of antivirus constituents from the fruits of Eucalyptus globulus Labill. in Caco-2 Cell Model” (Bioorg Med Chem Lett, 2007).
